Reference: publication PMC7343212, “Lactoferrin-Hexon Interactions Mediate CAR-Independent Adenovirus Infection of Human Respiratory Cells” (Journal of Virology, 2020)
Bridges are numbered along the chain shown (N, C = ends). Where no end group is shown, it is not given here.

Columns and labels:
[1] = system: human respiratory epithelial A549 cells (HAdV-C5_GFP); test: HAdV-C5_GFP transduction of A549 cells; type: cell-based; conditions: at this concentration (2 μM), Fig. 1D
Excerpt: For all transduction experiments, GFP-expressing vectors were used. The HAdV_GFP vector was purchased from Vector Development Laboratory. All mutated HAdV-C5 vectors were generated in the laboratory of A. Plückthun at the University of Zürich using the AdEasy system (Agilent) to contain an internal ribosome entry site (IRES)-luciferase (Luc)-GFP cassette for detection of transduction. To investigate the role of integrins in transduction, HAdV-C5-IRES-GFP with an intact RGD loop in the penton base protein (-DMNDHAIRGDTFATRAE-) and HAdV-C5-ΔRGD-IRES-GFP (-DMNDTSRAEEKRAE-), known not to bind integrins ([40]), were generated. To determine the binding site for hLF/hLfcin on the hexon protein, hexon-mutated vectors were produced with HVR-1 of HAdV-C5 ([43]) replaced with the corresponding sequence of HAdV-A31, as well as a HAdV-C5 vector mutated in HVR-7 ([44]).
For experiments in A549 cells, 15,000 cells were seeded into a black 96-well plate with a transparent bottom. For experiments with CHO-K1 cells, 20,000 cells were seeded. After 24 h, HAdV-C5 vectors was complexed with 2 μM Lfcin or with ∼12 μM (1 mg/ml) of LF and, after 60 min, added to the cells on ice. The blocking of CAR using soluble HAdV-C5 fiber knob was performed using 10 μg/ml of recombinant knob. After another 60 min, unbound complex was washed away using Dulbecco’s modified Eagle’s medium (DMEM), followed by final addition of fresh medium. After 44 h, the cells were fixed using 4% paraformaldehyde (PFA) for 10 min, and GFP expression was imaged using a Trophos system (Luminy Biotech Entreprises). For the hexon chimeric viruses, transduction was instead quantified by measuring the luciferase activity at 44 h postinfection using a Pierce luciferase glow assay kit.

[2] = system: A549 cells (HAdV-C5 virions); test: 35S-labeled HAdV-C5 virion binding to A549 cells; type: cell-based, Human; conditions: at this concentration (2 μM), Fig. 1C
Description: A549 cells were detached using phosphate-buffered saline (PBS) plus 0.05% EDTA with slow rocking at 37°C. Once detached, the cells were centrifuged at 1,500 × g for 5 min, resuspended in growth medium to about 2 × 10^6 cells/ml, and allowed to recover at 37°C, slowly rocking to keep the cells in suspension. While recovering, the HAdV-Lfcin complex was set up. Lfcin (2 μM), or an equivalent volume of PBS, was mixed with ^35S-labeled HAdV (15,000 particles/cell) in medium and left on ice at 4°C for 60 min. After 60 min of recovery, the cells were counted, and 150,000 viable cells were added to each well of a 96-V-shaped-well plate and centrifuged for 5 min at 1,500 × g. Once pelleted, the cells were resuspended in the HAdV-Lfcin solution or in HAdV-PBS solution and incubated on ice for 60 min at 4°C. After 60 min, the cells were pelleted and washed once in medium and once in PBS before the addition of scintillation fluid and quantification using a Wallac 1450 Microbeta counter (Trilux).

HAdV-C5 hexon = biological target: T1, HAdV-C5 hexon (Human adenovirus C serotype 5, UniProt P04133); test: Surface plasmon resonance, HAdV-C5 hexon immobilized; type: binding; conditions: SPR Biacore T200, HAdV-C5 hexon on CM5 chip, analyte hLfcin1-49, 2-fold series 8 nM to 2 μM, HBS-EP+ pH 7.4, 25°C; average from three independent measurements
T1 construct: the top phase containing soluble viral components was recovered, and HAdV hexons were purified using monoclonal hexon antibodies; made in house; host or cells: A549 cells infected with wild-type HAdV-C5 (strain Ad75)
T1 sequence (P04133 2-952 limits assumed): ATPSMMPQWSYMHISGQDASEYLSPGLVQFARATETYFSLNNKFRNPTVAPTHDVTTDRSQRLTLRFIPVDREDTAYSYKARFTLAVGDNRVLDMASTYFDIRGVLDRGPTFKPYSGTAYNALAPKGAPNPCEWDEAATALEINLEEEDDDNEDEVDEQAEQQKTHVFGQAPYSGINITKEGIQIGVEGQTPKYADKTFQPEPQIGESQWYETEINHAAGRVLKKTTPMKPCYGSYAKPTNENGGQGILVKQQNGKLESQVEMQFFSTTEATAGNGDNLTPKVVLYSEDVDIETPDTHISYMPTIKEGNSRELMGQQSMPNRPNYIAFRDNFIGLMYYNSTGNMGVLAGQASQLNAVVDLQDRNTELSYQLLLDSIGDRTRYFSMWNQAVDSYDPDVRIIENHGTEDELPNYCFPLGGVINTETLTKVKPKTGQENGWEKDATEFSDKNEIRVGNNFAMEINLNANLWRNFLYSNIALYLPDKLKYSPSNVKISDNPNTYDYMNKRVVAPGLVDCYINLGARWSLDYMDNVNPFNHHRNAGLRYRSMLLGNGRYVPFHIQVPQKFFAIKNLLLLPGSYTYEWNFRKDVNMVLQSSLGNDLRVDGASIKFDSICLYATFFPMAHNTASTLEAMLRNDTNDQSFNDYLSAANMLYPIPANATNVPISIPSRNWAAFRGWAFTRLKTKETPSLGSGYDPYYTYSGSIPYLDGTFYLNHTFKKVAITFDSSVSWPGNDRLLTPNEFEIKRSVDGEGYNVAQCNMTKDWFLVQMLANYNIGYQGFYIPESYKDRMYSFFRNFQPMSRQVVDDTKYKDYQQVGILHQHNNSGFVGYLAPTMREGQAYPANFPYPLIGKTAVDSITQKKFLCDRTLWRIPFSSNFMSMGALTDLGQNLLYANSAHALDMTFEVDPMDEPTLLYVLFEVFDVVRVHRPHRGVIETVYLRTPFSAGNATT
Description: Ten flasks of 70% confluent A549 cells were infected with HAdV-C5, HAdV-A31, or HAdV-B35. After initial inoculation, unbound virus was washed away, and approximately 30 ml of fresh medium (DMEM plus 20 mM HEPES [N-2-hydroxyethylpiperazine-NN-2-ethanesulfonic acid] plus 5% FBS) was added. At 48 h after infection, the cells were harvested by scraping into a small volume of DMEM, centrifuged, and resuspended in 6 ml of DMEM. The collected cells were lysed and the sample cleared by centrifugation. Virus was separated from soluble viral components by a CsCl gradient, as described previously ([59]). After ultracentrifugation, the top phase containing soluble viral components was recovered, and HAdV hexons were purified using monoclonal hexon antibodies (MAB8052) covalently attached to magnetic protein A/G beads (Pierce) using dimethyl pimelimidate (DMP) according to the manufacturer’s instructions. Bound hexons were washed three times using PBS to remove protein bound unspecifically, followed by elution in 50 μl of 200 mM glycine buffer at pH 2.5.
CM5 sensor chips, an amine-coupling kit, and HBS-EP+ buffer (10 mM HEPES, 150 mM NaCl, 3 mM EDTA, and 0.005% [vol/vol] surfactant P20 [pH 7.4]) were all purchased from GE Healthcare. All surface plasmon resonance (SPR) experiments were performed at 25°C in HBS-EP+ running buffer with adenovirus hexons immobilized on the sensor surface. […]

Substance	effect on HAdV-C5 transduction of A549 cells (in words) [1]	effect on HAdV-C5 binding to A549 cells (in words) [2]	Kd (HAdV-C5 hexon)
bLfcin17-31: bovine lactoferricin 17-31, standard solid-phase peptide synthesis (FKCRRWQWRMKKLGA; UniProt P24627 36-50, looked up, fragment) [reference compound]	no or little effect	no or little effect	
GRRRRSVQWCAVSQPEATKCFQWQRNMRKVRGPPVSCIKRDSPIQCIQA (disulfide 10-46, 20-37) [hLfcin1-49, human lactoferricin]			730 ± 206 nM
bLfcin17-42: bovine lactoferricin 17-42, purchased from the Center for Food Technology (FKCRRWQWRMKKLGAPSITCVRRAFA; ends and bridges not checked; cysteine pairing not given here; UniProt P24627 36-61, looked up, fragment) [reference compound]	no or little effect	no or little effect	
hLfcin18-42: human lactoferricin 18-42, solid-phase synthesis, cyclized in a two-step approach (KCFQWQRNMRKVRGPPVSCIKRDSP; not fully specified (bridges); also: cyclized in a two-step approach, kind and places not given here; UniProt P02788 37-61, looked up, fragment)	no or little effect	no or little effect	
